Experimental data as given in patent US20080119498A1, “Therapeutic Agent for Pruritus Comprising P38 Map Kinase Inhibitor as the Active Ingredient” (priority 2004, published 2008).

Tests used:
[1] = test system: histamine-induced eye scratching behavior; assay: Ocular pruritus inhibition activity to histamine-induced models; format: in vivo, guinea pig; conditions: for number of eye scratching times in comparison with the control (in words): histamine-induced guinea pig model, instilled at 0.1%; for Eye scratching behavior inhibition ratio / Number of eye scratching times: male Hartley guinea pigs, 0.1% (w/v) instilled twice, 10 μl per eye; for Eye scratching behavior inhibition ratio: 30 minutes after instillation of 1.0% histamine, versus control; for Number of eye scratching times: average for 30 minutes after instillation of 1.0% histamine, control 6.1
Experimental: Compound A was dissolved in a 5.0% Tween 80/physiological saline solution at a concentration of 0.1% (w/v), and Compound B was suspended in a 5.0% Tween 80/physiological saline solution at a concentration of 0.1% (w/v), whereby the respective test compound solutions were prepared.
Each test compound solution was instilled into both eyes of 5-week-old male Hartley guinea pigs in an amount of 10 μl per eye. At 15 minutes thereafter, each test compound solution of the same concentration was instilled again (twice in total). As a control, a 5.0% Tween 80/physiological saline solution was used.
After 15 minutes from the second instillation of each test compound solution, a physiological saline solution in which histamine was dissolved at 1.0% (w/v) was instilled into both eyes of the above guinea pigs in an amount of 10 μl per eye to induce eye scratching behavior.
(§1) The behavior of the guinea pigs after the instillation of histamine was videotaped, and the ocular pruritus was evaluated for each eye by counting the number of times of a series of behaviors of scratching the eye with the hind paws. In Table 1, the average of the number of eye scratching times for 30 minutes after the instillation of histamine and the average of the eye scratching behavior inhibition ratio are shown. Each group consisted of 8 eyes.
(§2) Eye scratching behavior inhibition ratio (%)=100−(number of eye scratching times for test compound)/(number of eye scratching times for control)×100

[2] = test system: platelet activating factor-induced eye scratching behavior; assay: Ocular pruritus inhibition activity to platelet activating factor-induced models; format: in vivo, guinea pig; conditions: for Eye scratching behavior inhibition ratio / Number of eye scratching times: male Hartley guinea pigs, 10 μl per eye; for Eye scratching behavior inhibition ratio: 30 minutes after instillation of 0.1% platelet activating factor, versus control; for Number of eye scratching times: average for 30 minutes after instillation of 0.1% platelet activating factor, control 7.1
Experimental: as §2
Platelet activating factor-induced ocular pruritus evaluation models were prepared in accordance with the published method of Kato et al. (J. Ocul. Pharmacol. Ther. 2003; 19: 315-324). Compound C was dissolved in ultrapure water at a concentration of 0.01% or 0.1% (w/v), and each of the resulting solutions was instilled into both eyes of 5-week-old male Hartley guinea pigs in an amount of 10 μl per eye. At 15 minutes thereafter, each solution of Compound C of the same concentration was instilled again (twice in total). As a control, ultrapure water was used.
After 15 minutes from the second instillation of the solution of Compound C, a physiological saline solution in which a platelet activating factor was dissolved at 0.1% (w/v) was instilled into both eyes of the above guinea pigs in an amount of 10 μl per eye to induce eye scratching behavior.
as §1, with “the platelet activating factor” for “histamine”, “2,” for “1,”

| Compound | number of eye scratching times in comparison with the control (in words) [1] | Eye scratching behavior inhibition ratio [1] | Number of eye scratching times [1] | Eye scratching behavior inhibition ratio ([2]; 0.01% (w/v) instilled twice) | Number of eye scratching times ([2]; 0.01% (w/v) instilled twice) | Eye scratching behavior inhibition ratio ([2]; 0.1% (w/v) instilled twice) | Number of eye scratching times ([2]; 0.1% (w/v) instilled twice) | number of eye scratching times in comparison with the control (in words) ([2]; platelet activating factor-induced guinea pig model, instilled at 0.01% or 0.1%) |
| --- | --- | --- | --- | --- | --- | --- | --- | --- |
| COc1nccc(-c2c(-c3ccc(F)cc3)ncn2[C@H]2CC[C@H](O)CC2)n1 [Compound B, trans-4-[4-(4-fluorophenyl)-5-(2-methoxy-4-pyrimidinyl)-1H-imidazole-1-yl]cyclohexanol] | significantly decreased | 36.1% | 3.9 times | – | – | – | – | – |
| C[S+]([O-])c1ccc(-c2nc(-c3ccc(F)cc3)c(-c3ccncc3)[nH]2)cc1.Cl (centres unmarked) [Compound C, 4-(4-fluorophenyl)-2-(4-methylsulfinylphenyl)-5-(4-pyridyl)-1H-imidazole hydrochloride] | – | – | – | 87.3% | 0.9 times | 85.9% | 1.0 times | significantly decreased |
| Cl.Oc1ccc(-c2nc(-c3ccc(F)cc3)c(-c3ccncc3)[nH]2)cc1 [Compound A, 4-(4-fluorophenyl)-2-(4-hydroxyphenyl)-5-(4-pyridyl)-1H-imidazole hydrochloride] | significantly decreased | 77.0% | 1.4 times | – | – | – | – | – |
